The test system of this data set is mouse carcinogenicity bioassay, TD50 from CPDB. In words: DSSTox (CPDBAS) Carcinogenic Potency Database Summary Mouse Bioassay Results. Summed up:
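Values are TD50 carcinogenic potencies from mouse chronic bioassays, taking the most positive result for each sex-species. Sources are published literature and NCI/NTP studies; target sites reflect author-reported positive findings.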

Setting [1] is: TD50_Mouse_Note: no positive results, TargetSites_Mouse_Female: no positive results.
The mark [2] stands for this setting: TargetSites_Mouse_Female: no positive results.
Where [3] appears, read: TD50_Mouse_Note: TD50 is harmonic mean of more than one positive test, TargetSites_Mouse_Female: lung.
[4] abbreviates: TD50_Mouse_Note: TD50 is harmonic mean of more than one positive test, TargetSites_Mouse_Female: lung, stomach.
Where [5] appears, read: TD50_Mouse_Note: TD50 is harmonic mean of more than one positive test, greater than ten-fold variation among TD50 values for positive res, TargetSites_Mouse_Female: liver.
Where [6] appears, read: TD50_Mouse_Note: TD50 is harmonic mean of more than one positive test, TargetSites_Mouse_Female: stomach.
[7] abbreviates: TD50_Mouse_Note: TD50 is harmonic mean of more than one positive test, TargetSites_Mouse_Female: liver.
Setting [8] is: TD50_Mouse_Note: TD50 is harmonic mean of more than one positive test, TargetSites_Mouse_Female: adrenal gland, liver.

The source made the active and inactive calls.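 How the source made its calls: active means a tumour-causing dose and a tumour site recorded for mice in at least one sex group; inconclusive means only government mouse studies exist and were judged inadequate; inactive means mouse studies exist but none gave tumours.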

In the case of `CC1=C(C(=O)OC(C)C)C(c2cccc([N+](=O)[O-])c2)C(C(=O)OC2CN(C(c3ccccc3)c3ccccc3)C2)=C(N)N1` (stereo not given), the outcome under setting [1] is “inactive; no positive results”.
Same read-out and setting: the value for `O=C(O)c1ccccc1-c1c2cc(I)c(=O)c(I)c-2oc2c(I)c(O)c(I)cc12` was “inactive; no positive results”.
As for `NNC=O`, the Potency (TD50_Mouse_Note: TD50 is harmonic mean of more than one positive test, harmonic mean of TD50 includes a value for upper 99% confidence li, TargetSites_Mouse_Female: lung) was 0.606 mmol/kg/day.
Take `COc1ccc(OC)c(/C=C/c2ccc(N)cc2)c1`: the Potency under setting [2] is 0.376 mmol/kg/day.
`COc1cc(NC(=O)C(N=Nc2ccc(-c3ccc(N=NC(C(C)=O)C(=O)Nc4cc(OC)c(Cl)cc4OC)c(Cl)c3)cc2Cl)C(C)=O)c(OC)cc1Cl` (stereo not given): the result (TargetSites_Mouse_BothSexes: no positive results) was inactive.
With `C#CC(C)(C)NC(=O)c1cc(Cl)cc(Cl)c1`, the Potency was 0.547 mmol/kg/day.
On to `O=[N+]([O-])c1ccc(Cl)c([N+](=O)[O-])c1`, for which the outcome under setting [1] is “inactive; no positive results”.
Regarding `O=c1c(O)c(-c2ccc(O)c(O)c2)oc2cc(O)cc(O)c12`, the outcome under setting [1] is “inactive; no positive results”.
Take `CCCc1ccc2c(c1)OCO2`: the Potency under setting [3] is 0.761 mmol/kg/day.
For `CCCCN(N)CCCC`, the Potency under setting [4] is 0.313 mmol/kg/day.
On to `CC(C)C[C@H]1C(=O)N2CCC[C@H]2[C@]2(O)O[C@](NC(=O)[C@@H]3C=C4c5cccc6[nH]c(Br)c(c56)C[C@H]4N(C)C3)(C(C)C)C(=O)N12`, for which the outcome under setting [1] was “inactive; no positive results”.
Still for that read-out and setting: as for `CCCCCl`, the entry is “inactive; no positive results”.
As for `COc1ccccc1N`, the Potency (TD50_Mouse_Note: TD50 is harmonic mean of more than one positive test, TargetSites_Mouse_Female: urinary bladder) was 6.05 mmol/kg/day.
Turning to `Nc1ccc(N)c(Cl)c1`, under setting [1], the outcome is “inactive; no positive results”.
Same read-out and setting: as for `O=C1C(c2[nH]c3ccc(S(=O)(=O)O)cc3c2O)=Nc2ccc(S(=O)(=O)O)cc21`, the entry is “inactive; no positive results”.
On to `COS(C)(=O)=O`, for which the Potency was 0.289 mmol/kg/day.
Consider `O=S(=O)(Oc1ccc(Cl)cc1)c1ccc(Cl)cc1`, for which, under setting [1], the outcome was “inactive; no positive results”.
Turning to `CN1[C@@H]2CC(OC(=O)[C@@H](CO)c3ccccc3)C[C@H]1[C@@H]1O[C@@H]12` (stereo not given in full), the outcome under setting [1] is “inactive; no positive results”.
With `O=S(=O)(c1ccc(Cl)cc1)c1ccc(Cl)cc1`, under setting [1], the outcome is “inactive; no positive results”.
As to `C1COCCO1`, the Potency under setting [5] is 2.32 mmol/kg/day.
As for `C[N+](=O)[O-]`, the Potency (TD50_Mouse_Note: TD50 is harmonic mean of more than one positive test, TargetSites_Mouse_Female: harderian gland, liver, lung) was 7.68 mmol/kg/day.
For the compound `O=C(O)CCCC/C=C(\c1ccccc1)c1cccnc1`, the outcome under setting [1] is “inactive; no positive results”.
On the same count and under the same terms, the value for `CC(O)CCl` (stereo not given) was “inactive; no positive results”.
With `C1CCOC1`, for the setting “TargetSites_Mouse_Female: liver”, the Potency was 18 mmol/kg/day.
Consider `CC1=C(C(=O)OCCN(Cc2ccccc2)c2ccccc2)C(c2cccc([N+](=O)[O-])c2)C(P2(=O)OCC(C)(C)CO2)=C(C)N1` (stereo not given), for which the outcome under setting [1] was “inactive; no positive results”.
The same measure, in the same setting: as for `OC[C@H]1O[C@H](O[C@]2(CCl)O[C@H](CCl)[C@@H](O)[C@@H]2O)[C@H](O)[C@@H](O)[C@H]1Cl`, the entry is “inactive; no positive results”.
With `CC1=C[C@H]2[C@@]3(O)[C@H](C)[C@@H](O)[C@]4(O)[C@H]([C@@H]3C=C(CO)C[C@]2(O)C1=O)C4(C)C`, under “TD50_Mouse_Note: positive test results only by intraperitoneal or intravenous injection, TargetSites_Mouse_Female: hematopoietic system”, the Potency was 0.00606 mmol/kg/day.
Turning to `C=CCl`, the Potency (TD50_Mouse_Note: TD50 is harmonic mean of more than one positive test, TargetSites_Mouse_Female: lung, mammary gland, vascular system) was 0.349 mmol/kg/day.
With `CC(COc1ccc(C(C)(C)C)cc1)OS(=O)OCCCl` (stereo not given), the Potency under setting [2] is 0.472 mmol/kg/day.
With `COc1cc2c(c3oc4cccc(O)c4c(=O)c13)C1C=COC1O2` (stereo not given), the Potency (TD50_Mouse_Note: TD50 is harmonic mean of more than one positive test, TargetSites_Mouse_Female: vascular system) is 0.0028 mmol/kg/day.
For the compound `CC[C@H]1OC(=O)C[C@@H](O)[C@H](C)[C@@H](O[C@@H]2O[C@H](C)[C@@H](O[C@H]3C[C@@](C)(O)[C@@H](O)[C@H](C)O3)[C@H](N(C)C)[C@H]2O)[C@@H](CC=O)C[C@@H](C)C(=O)/C=C/C(C)=C/C1CO[C@@H]1O[C@H](C)[C@@H](O)[C@@H](OC)[C@H]1OC` (stereo not given in full), under setting [1], the outcome is “inactive; no positive results”.
Turning to `[N]=O`, the outcome under setting [1] was inactive.
Regarding `NC(=O)CCCCn1ccc(NC(N)=NCC(F)(F)F)n1`, the Potency under setting [6] is 1.84 mmol/kg/day.
With `Nc1ccccc1-c1ccccc1`, the Potency (TargetSites_Mouse_Female: vascular system) is 5.45 mmol/kg/day.
Consider `N[C@@H](CCC(=O)NNc1ccc(C(=O)O)cc1)C(=O)O`, for which the Potency under setting [2] is 0.985 mmol/kg/day.
Take `C=CCN(N)CC=C`: the Potency under setting [4] is 0.264 mmol/kg/day.
With `COC(=O)[C@H]1[C@H]2C[C@@H]3c4[nH]c5cc(OC)ccc5c4CCN3C[C@H]2C[C@@H](OC(=O)c2cc(OC)c(OC)c(OC)c2)[C@@H]1OC`, the Potency (TD50_Mouse_Note: TD50 is harmonic mean of more than one positive test, TargetSites_Mouse_Female: mammary gland) is 0.00825 mmol/kg/day.
`CN(C)C(=S)[S][Pb][S]C(=S)N(C)C`: under setting [1], the outcome was “inactive; no positive results”.
The same measure, in the same setting: as for `CC(/C=C/C=C(\C)C(=O)O[C@@H]1O[C@H](CO[C@@H]2O[C@H](CO)[C@@H](O)[C@H](O)[C@H]2O)[C@@H](O)[C@H](O)[C@H]1O)=C\C=C\C=C(C)\C=C\C=C(/C)C(=O)O[C@@H]1O[C@H](CO[C@@H]2O[C@H](CO)[C@@H](O)[C@H](O)[C@H]2O)[C@@H](O)[C@H](O)[C@H]1O`, the entry is “inactive; no positive results”; as for `CN(C)C(=O)Nc1ccc(Cl)c(Cl)c1`, “inactive; no positive results”; as for `Oc1ccc(Cl)cc1Cl`, “inactive; no positive results”.
Turning to `CC[C@H](C)C(=O)O[C@H]1C[C@@H](C)C=C2C=C[C@H](C)[C@H](CC[C@@H]3C[C@@H](O)CC(=O)O3)[C@H]21`, for the setting “TD50_Mouse_Note: TD50 is harmonic mean of more than one positive test, TargetSites_Mouse_Female: liver, lung, stomach”, the Potency was 1.27 mmol/kg/day.
For `Clc1cccc(-c2ccc(Cl)c(Cl)c2Cl)c1Cl`, the outcome (TD50_Mouse_Note: TD50_Mouse_mmol was not calculated for this mixture, but Activiity Score is assigned value of 50 to indicate active) was “active; liver”.
Take `C=Cc1ccccc1`: under setting [3], the Potency was 2.02 mmol/kg/day.
In the case of `CCCCNNCCCC`, the Potency (TD50_Mouse_Note: TD50 is harmonic mean of more than one positive test, TargetSites_Mouse_Female: hematopoietic system, lung) was 0.213 mmol/kg/day.
As for `CC(N)=O`, the Potency under setting [2] was 51 mmol/kg/day.
For `Oc1ccc(O)cc1`, the Potency under setting [5] is 2.04 mmol/kg/day.
With `CCOC(=O)CC(SP(=O)(OC)OC)C(=O)OCC` (stereo not given), the outcome under setting [1] is “inactive; no positive results”.
Take `Cc1ccc(Cl)cc1N`: the Potency (TD50_Mouse_Note: TD50 is harmonic mean of more than one positive test, TargetSites_Mouse_Female: liver, vascular system) was 1.38 mmol/kg/day.
As to `COc1c2occc2cc2ccc(=O)oc12`, the outcome under setting [1] is “inactive; no positive results”.
`Nc1ccc2c(c1)C(=O)c1ccccc1C2=O`: the Potency (TD50_Mouse_Note: TD50 is harmonic mean of more than one positive test, TargetSites_Mouse_Female: hematopoietic system, liver) is 5.33 mmol/kg/day.
As for `CC1(C)[C@@H](OC2O[C@H](C(=O)O)[C@@H](O)[C@H](O)[C@H]2O[C@H]2O[C@H](C(=O)O)[C@@H](O)[C@H](O)[C@H]2O)CC[C@]2(C)[C@H]3C(=O)C=C4[C@@H]5C[C@@](C)(C(=O)O)CC[C@]5(C)CC[C@@]4(C)[C@]3(C)CC[C@@H]12` (stereo not given in full), under setting [1], the outcome was “inactive; no positive results”.
Take `O=C(O)C(Cl)(Cl)Cl`: the Potency under setting [7] is 3.57 mmol/kg/day.
Turning to `CC(C)COC(=O)c1ccc(O)cc1`, the outcome under setting [1] was “inactive; no positive results”.
On to `Cc1ccc(OP(=O)(Oc2ccc(C)cc2)Oc2ccc(C)cc2)cc1`, for which the outcome under setting [1] is “inactive; no positive results”.
In the case of `ClC(Cl)C(Cl)(Cl)Cl`, the Potency under setting [7] was 0.283 mmol/kg/day.
For the compound `NNCCc1ccccc1`, for the setting “TargetSites_Mouse_Female: lung, vascular system”, the Potency was 0.0623 mmol/kg/day.
Turning to `CCCCCCCCCCCCCCCC(=O)OC/C=C(C)/C=C/C=C(C)/C=C/C1=C(C)CCCC1(C)C`, the outcome (TD50_Mouse_Note: no positive results) was “inactive; no positive results”.
Turning to `O=c1[nH]c(=O)n(C2CCCO2)cc1F` (stereo not given), the outcome under setting [1] is “inactive; no positive results”.
Still for that read-out and setting: the value for `CN1C(=O)C[C@@H](C(=O)N[C@@H](Cc2cnc[nH]2)C(=O)N2CCC[C@H]2C(N)=O)NC1=O` was “inactive; no positive results”.
Consider `NNc1nc(-c2ccc(N)cc2)cs1`, for which the Potency (TargetSites_Mouse_Female: hematopoietic system) is 0.0548 mmol/kg/day.
Regarding `O=C(O)Cc1c[nH]c2ccccc12`, the outcome under setting [1] was “inactive; no positive results”.
The same measure, in the same setting: as for `CN[C@@H](C)[C@H](O)c1ccccc1`, the entry is “inactive; no positive results”; as for `Cn1c(=O)c2c(ncn2C)n(C)c1=O`, “inactive; no positive results”; as for `C=C(C)C(=O)OC`, “inactive; no positive results”.
With `c1ccoc1`, under setting [8], the Potency is 0.04 mmol/kg/day.
As to `Cc1ccc(Cc2cnc(NCCSCc3ccc(CN(C)C)o3)[nH]c2=O)cn1`, under setting [1], the outcome is “inactive; no positive results”.
With `O=C1CCO1`, the Potency under setting [6] was 0.0172 mmol/kg/day.
Regarding `Cc1ccc(/C(=C\CN2CCCC2)c2ccccn2)cc1`, the outcome under setting [1] was “inactive; no positive results”.
Turning to `Nc1c(Cl)c(Cl)nc(C(=O)O)c1Cl`, the outcome under setting [1] was “inactive; no positive results”.
The same measure, in the same setting: the value for `CCN(CC)C(=O)/C(Cl)=C(\C)OP(=O)(OC)OC` was “inactive; no positive results”.
Regarding `O=S1(=O)OCCO1`, the result under setting [1] was inactive.
With `Cc1c(N(C)CS(=O)(=O)O)c(=O)n(-c2ccccc2)n1C`, the Potency under setting [7] is 1.89 mmol/kg/day.
On to `ClCC(Cl)Cl`, for which, under setting [8], the Potency was 0.412 mmol/kg/day.
Turning to `O=C(O)Cc1cccc2ccccc12`, the outcome under setting [1] is “inactive; no positive results”.

(Values after PubChem BioAssay AID1199 (EPA DSSTox, 2008).)
